According to PMC7433010, “Exploration of multi‐target effects of 3‐benzoyl‐5‐hydroxychromen‐2‐one in Alzheimer’s disease cell and mouse models” (Aging Cell, 2020):

Target: T1, His‐tagged ∆K280 TauRD protein (Homo sapiens, UniProt P10636, DEL597-597)
T1 construct: containing residues 244–372 of the full‐length 4R2N Tau441; added start Met (ATG codon in forward primer) (N); made in house; host or cells: E. coli BL21(DE3)pLysS
Assay: Thioflavin T binding assay for TauRD aggregation
Type: biochemical
Settings: 10 µM, 2 days at 37°C; without compound 16,856 AU
Source text: Although known to reduce Aβ neurotoxicity (Lorenzo & Yankner, 1994), congo red was also reported as an agonist to drive aggregation within 293 cells expressing full‐length tau isoform htau40 (Bandyopadhyay, Li, Yin, & Kuret, 2007). Thus, we further examined the effects of congo red and tested chalcones on Tau misfolding using prokaryotic His‐tagged wild‐type (WT) and ∆K280 pET‐28a(+)‐TauRD proteins (Figure S3a) using thioflavin T binding assay and transmission electron microscopy (TEM) examination. […]
For thioflavin T binding assay, TauRD protein (20 μM in final 50 μl) was incubated with tested compounds (1−10 μM) in 150 mM NaCl and 20 mM Tris-HCl, pH 8.0, at 37°C for 48 h to form aggregates. […] Thioflavin T fluorescence intensity of samples was recorded by using a microplate reader (Bio-Tek FLx800), with excitation 420 nm and emission 485 nm filter combination.
Figure S3. TauRD-His proteins and Tau aggregation monitored by thioflavin T fluorescence and TEM. […] TauRD protein (20 μM in 50 μl buffer) was incubated with congo red, licochalcone A, or LM compounds (1−10 μM) at 37°C for 48 h, and aggregation was monitored by measuring thioflavin T fluorescence intensity (n = 3). p values: comparisons between 0 h and 48 h (^###: p < 0.001), wild type versus ΔK280 (^&&&: p < 0.001), or with and without compound addition (**: p < 0.01, ***: p < 0.001). […]

T1 sequence (P10636 with tags, fused parts or gaps isoform P10636-8 DEL280-280): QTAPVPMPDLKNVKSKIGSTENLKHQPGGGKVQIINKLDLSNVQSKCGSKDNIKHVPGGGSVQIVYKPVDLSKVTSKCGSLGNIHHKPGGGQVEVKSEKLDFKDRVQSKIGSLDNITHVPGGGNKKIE

| ΔK280 TauRD aggregation (thioflavin T fluorescence) | SMILES |
| --- | --- |
| 6,758 AU | COc1ccc(C(=O)/C=C/c2cc(Br)ccc2O)cc1 [LM‐004] |
| 4,774 AU | Nc1c(/N=N/c2ccc(-c3ccc(/N=N/c4cc(S(=O)(=O)O)c5ccccc5c4N)cc3)cc2)cc(S(=O)(=O)O)c2ccccc12 [congo red, reference compound] |
